{"source": "patent US12064522B2", "about": "“Low temperature process for preparing silicon oxide coated pharmaceuticals” (priority 2020, dated 2024)"}
{"experiment": "Flowability (Flow Function, FF) of API particles", "assay_type": "physicochemical"}
{"smiles": "Cn1c(=O)c2[nH]cnc2n(C)c1=O", "note": "[theophylline]", "Flowability (Flow Function; FF) of uncoated particles": 10}
{"smiles": "CC(=O)Nc1ccc(O)cc1", "note": "[Acetaminophen]", "Flowability (Flow Function; FF) of uncoated particles": 2.61}
{"smiles": "CC(C)Cc1ccc(C(C)C(=O)O)cc1", "note": "(stereo not drawn) [ibuprofen]", "Flowability (Flow Function; FF) of uncoated particles": 4.23}
